The NIST ThermoML archive (doi:10.1021/je060271a)

Conditions: 343.15 K, Liquid, Vibrating tube method

CCCC(=O)OCC(COC(=O)CCC)(COC(=O)CCC)COC(=O)CCC [pentaerythritol tetrabutyrate]
Conditions | mass density [kg/m3]
20390 kPa | 1023.3
20430 kPa | 1023.3
20478 kPa | 1023.4
20526 kPa | 1023.4
20575 kPa | 1023.5
20625 kPa | 1023.5
20668 kPa | 1023.6
20718 kPa | 1023.5
20770 kPa | 1023.6
20824 kPa | 1023.8
20870 kPa | 1023.6
20921 kPa | 1023.6
20960 kPa | 1023.7
20996 kPa | 1023.8
21033 kPa | 1023.8
21064 kPa | 1023.8
21100 kPa | 1023.9
21137 kPa | 1023.9
21173 kPa | 1023.9
21204 kPa | 1023.9
21241 kPa | 1024
21279 kPa | 1024
21316 kPa | 1024.1
21354 kPa | 1024.1
21386 kPa | 1024.2
21424 kPa | 1024.1
21463 kPa | 1024.1
21495 kPa | 1024.1
21534 kPa | 1024.1
21572 kPa | 1024.2
21612 kPa | 1024.2
21645 kPa | 1024.2
21684 kPa | 1024.3
21723 kPa | 1024.3
21763 kPa | 1024.3
21802 kPa | 1024.2
21835 kPa | 1024.3
21876 kPa | 1024.4
21916 kPa | 1024.4
21956 kPa | 1024.4
21990 kPa | 1024.5
22030 kPa | 1024.5
22071 kPa | 1024.4
22112 kPa | 1024.5
22146 kPa | 1024.5
22187 kPa | 1024.5
22220 kPa | 1024.6
22268 kPa | 1024.5
22310 kPa | 1024.7
22344 kPa | 1024.7
22387 kPa | 1024.8
22429 kPa | 1024.7
22472 kPa | 1024.8
22507 kPa | 1024.8
22548 kPa | 1024.8
22591 kPa | 1024.7
22634 kPa | 1024.9
22670 kPa | 1024.9
22714 kPa | 1025
22756 kPa | 1025
22799 kPa | 1024.9
22842 kPa | 1025
22886 kPa | 1024.9
22970 kPa | 1025.2
23014 kPa | 1025.2
23052 kPa | 1025.2
23097 kPa | 1025.2
23142 kPa | 1025.2
23180 kPa | 1025.2
23226 kPa | 1025.3
23270 kPa | 1025.4
23317 kPa | 1025.4
23355 kPa | 1025.3
23400 kPa | 1025.4
23447 kPa | 1025.5
23494 kPa | 1025.6
23535 kPa | 1025.4
23582 kPa | 1025.6
23630 kPa | 1025.6
23676 kPa | 1025.6
23716 kPa | 1025.7
23763 kPa | 1025.7
24094 kPa | 1025.8
24137 kPa | 1026
24186 kPa | 1026
24236 kPa | 1025.8
24278 kPa | 1026.1
24328 kPa | 1026
24379 kPa | 1026
24431 kPa | 1026.1
24484 kPa | 1026.1
24528 kPa | 1026.2
24578 kPa | 1026.2
24621 kPa | 1026.3
24665 kPa | 1026.2
24708 kPa | 1026.3
24745 kPa | 1026.3
24788 kPa | 1026.3
24833 kPa | 1026.2
24870 kPa | 1026.4
24915 kPa | 1026.4
24959 kPa | 1026.4
25004 kPa | 1026.4
25049 kPa | 1026.5
25086 kPa | 1026.6
25132 kPa | 1026.5
25176 kPa | 1026.6
25223 kPa | 1026.7
25270 kPa | 1026.7
25308 kPa | 1026.7
25354 kPa | 1026.8
25401 kPa | 1026.7
25439 kPa | 1026.8
25486 kPa | 1026.9
25532 kPa | 1026.7
25579 kPa | 1026.8
25625 kPa | 1026.9
25665 kPa | 1027
26228 kPa | 1027.4
26277 kPa | 1027.4
26328 kPa | 1027.3
26378 kPa | 1027.4
26422 kPa | 1027.5
26476 kPa | 1027.5
26521 kPa | 1027.6
26574 kPa | 1027.5
26957 kPa | 1027.8
27040 kPa | 1027.8
27084 kPa | 1027.9
27121 kPa | 1027.9
27166 kPa | 1028
27211 kPa | 1027.9
27248 kPa | 1027.9
27293 kPa | 1028
27331 kPa | 1028.1
27416 kPa | 1028.1
27462 kPa | 1028.2
27508 kPa | 1028.2
27548 kPa | 1028.2
27598 kPa | 1028.2
27639 kPa | 1028.3
27688 kPa | 1028.2
27761 kPa | 1028.4
27799 kPa | 1028.6
27832 kPa | 1028.3
27872 kPa | 1028.4
27905 kPa | 1028.5
27944 kPa | 1028.4
27976 kPa | 1028.5
28014 kPa | 1028.6
28054 kPa | 1028.6
28087 kPa | 1028.5
28127 kPa | 1028.6
28281 kPa | 1028.7
28314 kPa | 1028.6
28355 kPa | 1028.7
28389 kPa | 1028.6
28430 kPa | 1028.9
28465 kPa | 1028.7
28506 kPa | 1028.8
28548 kPa | 1028.9
28583 kPa | 1028.8
28623 kPa | 1028.9
28658 kPa | 1029
28700 kPa | 1028.9
28735 kPa | 1029.1
28776 kPa | 1029
28818 kPa | 1029
28853 kPa | 1029.1
28895 kPa | 1029.1
28938 kPa | 1029.2
28973 kPa | 1029.2
29016 kPa | 1029.2
29052 kPa | 1029.3
29095 kPa | 1029.1
29138 kPa | 1029.2
29173 kPa | 1029.4
29217 kPa | 1029.4
29262 kPa | 1029.3
29299 kPa | 1029.4
29344 kPa | 1029.3
29386 kPa | 1029.4
29417 kPa | 1029.3
29455 kPa | 1029.4
29492 kPa | 1029.5
29524 kPa | 1029.5
29563 kPa | 1029.6
29744 kPa | 1029.6
29776 kPa | 1029.7
29815 kPa | 1029.6
29847 kPa | 1029.7
29886 kPa | 1029.7
29926 kPa | 1029.8
29959 kPa | 1029.8
29999 kPa | 1029.8
30033 kPa | 1030
30073 kPa | 1029.8
30115 kPa | 1029.9
30149 kPa | 1029.9
30190 kPa | 1029.9
30494 kPa | 1030.1
30523 kPa | 1030.1
30557 kPa | 1030.2
30591 kPa | 1030.2
30621 kPa | 1030.3
30656 kPa | 1030.2
30685 kPa | 1030.1
30721 kPa | 1030.3
30750 kPa | 1030.3
30945 kPa | 1030.3
30981 kPa | 1030.5
31016 kPa | 1030.3
31046 kPa | 1030.5
31082 kPa | 1030.5
31111 kPa | 1030.5
31147 kPa | 1030.5
31176 kPa | 1030.6
31212 kPa | 1030.4
31249 kPa | 1030.7
31280 kPa | 1030.7
31317 kPa | 1030.6
31347 kPa | 1030.6
31384 kPa | 1030.8
31414 kPa | 1030.8
31451 kPa | 1030.8
31487 kPa | 1030.8
31518 kPa | 1030.8
31554 kPa | 1030.8
31590 kPa | 1030.9
31621 kPa | 1030.9
31658 kPa | 1031
31688 kPa | 1030.9
31725 kPa | 1030.9
31763 kPa | 1031
31794 kPa | 1031
31831 kPa | 1030.9
31867 kPa | 1031.1
31898 kPa | 1031.1
31934 kPa | 1031.1
31970 kPa | 1031
32008 kPa | 1031.1
32044 kPa | 1031.1
32074 kPa | 1031.1
32111 kPa | 1031.4
32149 kPa | 1031.2
32255 kPa | 1031.2
32292 kPa | 1031.2
32329 kPa | 1031.2
32367 kPa | 1031.2
32398 kPa | 1031.5
32436 kPa | 1031.5
32474 kPa | 1031.3
32512 kPa | 1031.3
32544 kPa | 1031.4
32582 kPa | 1031.4
32621 kPa | 1031.5
32660 kPa | 1031.4
32699 kPa | 1031.6
32731 kPa | 1031.5
32769 kPa | 1031.5
32808 kPa | 1031.6
32846 kPa | 1031.6
32919 kPa | 1031.6
32958 kPa | 1031.8
33037 kPa | 1031.7
33070 kPa | 1031.8
33110 kPa | 1031.7
33151 kPa | 1031.7
33191 kPa | 1031.8
33231 kPa | 1032
33264 kPa | 1031.8
33304 kPa | 1032.1
33345 kPa | 1032.1
33379 kPa | 1032
33420 kPa | 1032.1
33461 kPa | 1032.1
33502 kPa | 1032.1
33951 kPa | 1032.4
33995 kPa | 1032.4
34033 kPa | 1032.3
34080 kPa | 1032.5
34127 kPa | 1032.4
34177 kPa | 1032.6
34220 kPa | 1032.5
34271 kPa | 1032.6
34323 kPa | 1032.5
34368 kPa | 1032.6
34420 kPa | 1032.7
34453 kPa | 1032.7
34484 kPa | 1032.7
34510 kPa | 1032.7
34517 kPa | 1032.7
34520 kPa | 1032.8
